Drawing on patent US12091425B2 (AMGEN INC., priority 2016, dated 2024), this text covers ring closure, isolated yield for 19 molecules.

Values joined by “and” are separate entries in the source; they are usually repeats but may differ in a detail not shown here. Identical values can stand only once. Like-named read-outs stand apart in the source and are kept apart here.

Where the note is “rcm bond, 16-membered ring, Hoveyda-Grubbs II, DCM, 2.7 mM, 45.0 °C”, “(1S,3′R,6′R,7′S,8′E,12′R)-12′-((2S)-2-((tert-butyl(diphenyl)silyl)oxy)propyl)-6-chloro-7′-hydroxy-3,4-dihydro-2h,15′h-spiro[naphthalene-1,22′-[20]oxa[13]thia[1,14]diazatetracyclo[14.7.2.0^3,6.0^19,24]pentacosa[8,16,18,24]tetraen]-15′-one 13′,13′-dioxide or (1S,3′R,6′R,7′S,8′E,12′S)-12′-((2S)-2-((tert-butyl(diphenyl)silyl)oxy)propyl)-6-chloro-7′-hydroxy-3,4-dihydro-2h,15′h-spiro[naphthalene-1,22′-[20]oxa[13]thia[1,14]diazatetracyclo[14.7.2.0^3,6.0^19,24]pentacosa[8,16,18,24]tetraen]-15′-one 13′,13′-dioxide” displayed a ring closure, isolated yield of 32%.
`C[C@H]1CC=CC[C@H](O)[C@@H]2CC[C@H]2CN2C[C@@]3(CCCc4cc(Cl)ccc43)COc3ccc(cc32)C(=O)NS(=O)(=O)[C@H]1C` (single isomer, unassigned) returned a ring closure, isolated yield (from C=CC[C@H](C)[C@H](C)S(=O)(=O)NC(=O)c1ccc2c(c1)N(C[C@@H]1CC[C@H]1[C@@H](O)CC=C)C[C@@]1(CCCc3cc(Cl)ccc31)CO2, rcm bond, 17-membered ring, Hoveyda-Grubbs II (10 mol%), DCM, 1.6 mM, 45.0 °C) of 25%.
For the setting “from C=C[C@H](O)[C@@H]1CC[C@H]1CN1C[C@@]2(CCCc3cc(Cl)ccc32)COc2ccc(C(=O)NS(=O)(=O)C[C@@H]3C[C@@H]3/C=C/C)cc21, rcm bond, 16-membered ring, Hoveyda-Grubbs II, DCE, 1.99 mM, 60.0 °C, 6.0 h”, `O=C1NS(=O)(=O)C[C@H]2C[C@H]2/C=C/[C@H](O)[C@@H]2CC[C@H]2CN2C[C@@]3(CCCc4cc(Cl)ccc43)COc3ccc1cc32` (mixture of isomers) showed a ring closure, isolated yield of 29%.
Take `C[C@]12CC[C@H]1CN1C[C@@]3(CCCc4cc(Cl)ccc43)COc3ccc(cc31)C(=O)NS(=O)(=O)CC/C=C\C[C@@H]2O`: the ring closure, isolated yield (from C=CCCS(=O)(=O)NC(=O)c1ccc2c(c1)N(C[C@H]1CC[C@@]1(C)[C@@H](O)CC=C)C[C@@]1(CCCc3cc(Cl)ccc31)CO2, rcm bond, 16-membered ring, Hoveyda-Grubbs II, toluene, 1.0 mM, 1.5 h) is 83%.
The molecule `C[C@]12CC[C@@H]1CN1C[C@@]3(CCCc4cc(Cl)ccc43)COc3ccc(cc31)C(=O)NS(=O)(=O)CC/C=C/C[C@@H]2O` registered a ring closure, isolated yield (from C=CCCS(=O)(=O)NC(=O)c1ccc2c(c1)N(C[C@@H]1CC[C@@]1(C)[C@@H](O)CC=C)C[C@@]1(CCCc3cc(Cl)ccc31)CO2, rcm bond, 16-membered ring, 1.5 h) of 4.76%.
For the molecule `CC(C)(C)[Si](C)(C)OC[C@H]1CC=CC[C@H](O)[C@@H]2CC[C@H]2CN2C[C@@]3(CCCc4cc(Cl)ccc43)COc3ccc(cc32)C(=O)NS1(=O)=O`, the ring closure, isolated yield (from C=CC[C@H](CO[Si](C)(C)C(C)(C)C)S(=O)(=O)NC(=O)c1ccc2c(c1)N(C[C@@H]1CC[C@H]1[C@@H](O)CC=C)C[C@@]1(CCCc3cc(Cl)ccc31)CO2, rcm bond, 16-membered ring, Hoveyda-Grubbs II (20 mol%), toluene, 0.72 mM, 106.0 °C, 2.0 h) was 85.9%.
For `O=C1NS(=O)(=O)C2CC(/C=C/[C@H](O)[C@@H]3CC[C@H]3CN3C[C@@]4(CCCc5cc(Cl)ccc54)COc4ccc1cc43)C2`, for the setting “from NS(=O)(=O)C1CC(/C=C/[C@H](O)[C@@H]2CC[C@H]2CN2C[C@@]3(CCCc4cc(Cl)ccc43)COc3ccc(C(=O)O)cc32)C1, amide bond, 16-membered ring, EDC/DMAP, DCM, 2.0 mM”, the ring closure, isolated yield is 3.3% and 22%.
As to “[(1S,3′R,6′R,7′S,8′Z,12′R)-12′-((2R)-2-((tert-butyl(diphenyl)silyl)oxy)propyl)-6-chloro-7′-hydroxy-3,4-dihydro-2h,15′h-spiro[naphthalene-1,22′-[20]oxa[13]thia[1,14]diazatetracyclo[14.7.2.0^3,6.0^19,24]pentacosa[8,16,18,24]tetraen]-15′-one 13′,13′-dioxide and (1S,3′R,6′R,7′S,8′E,12′R)-12′-((2R)-2-((tert-butyl(diphenyl)silyl)oxy)propyl)-6-chloro-7′-hydroxy-3,4-dihydro-2h,15′h-spiro[naphthalene-1,22′-[20]oxa[13]thia[1,14]diazatetracyclo[14.7.2.0^3,6.0^19,24]pentacosa[8,16,18,24]tetraen]-15′-one 13′,13′-dioxide] or [(1S,3′R,6′R,7′S,8′Z,12′S)-12′-((2R)-2-((tert-butyl(diphenyl)silyl)oxy)propyl)-6-chloro-7′-hydroxy-3,4-dihydro-2h,15′h-spiro[naphthalene-1,22′-[20]oxa[13]thia[1,14]diazatetracyclo[14.7.2.0^3,6.0^19,24]pentacosa[8,16,18,24]tetraen]-15′-one 13′,13′-dioxide and (1S,3′R,6′R,7′S,8′E,12′S)-12′-((2R)-2-((tert-butyl(diphenyl)silyl)oxy)propyl)-6-chloro-7′-hydroxy-3,4-dihydro-2h,15′h-spiro[naphthalene-1,22′-[20]oxa[13]thia[1,14]diazatetracyclo[14.7.2.0^3,6.0^19,24]pentacosa[8,16,18,24]tetraen]-15′-one 13′,13′-dioxide]”, the ring closure, isolated yield amounted to 38% (rcm bond, 16-membered ring, Hoveyda-Grubbs II, DCM, 1.4 mM, 45.0 °C) and 52% (rcm bond, 16-membered ring, Hoveyda-Grubbs II, DCM, 1.51 mM, 45.0 °C).
For the setting “from C=CC[C@H](C)N(CCOC)S(=O)(=O)NC(=O)c1ccc2c(c1)N(C[C@@H]1CC[C@H]1[C@@H](O)C=C)C[C@@]1(CCCc3cc(Cl)ccc31)CO2, rcm bond, 16-membered ring, Hoveyda-Grubbs II, 1,2-dichloroethane, 2.0 mM, 60.0 °C, 18.0 h”, `COCCN1[C@@H](C)CC=C[C@H](O)[C@@H]2CC[C@H]2CN2C[C@@]3(CCCc4cc(Cl)ccc43)COc3ccc(cc32)C(=O)NS1(=O)=O` showed a ring closure, isolated yield of 37%.
On to `O=C1NS(=O)(=O)CC2CC2C=C[C@H](O)[C@@H]2CC[C@H]2CN2C[C@@]3(CCCc4cc(Cl)ccc43)COc3ccc1cc32` (single isomer, unassigned), for which the ring closure, isolated yield (from C=C[C@H](O)[C@@H]1CC[C@H]1CN1C[C@@]2(CCCc3cc(Cl)ccc32)COc2ccc(C(=O)NS(=O)(=O)CC3CC3/C=C/C)cc21, rcm bond, 16-membered ring, Hoveyda-Grubbs II, DCE, 2.0 mM, 60.0 °C, 6.0 h) was found to be 12%.
On to “(1S,3′R,6′R,7′S,8′E,12′S)-12′-((2R)-2-((tert-butyl(diphenyl)silyl)oxy)propyl)-6-chloro-7′-hydroxy-3,4-dihydro-2H,15′H-spiro[naphthalene-1,22′-[20]oxa[13]thia[1,14]diazatetracyclo[14.7.2.0^3,6.0^19,24]pentacosa[8,16,18,24]tetraen]-15′-one 13′,13′-dioxide or (1S,3′R,6′R,7′S,8′E,12′R)-12′-((2R)-2-((tert-butyl(diphenyl)silyl)oxy)propyl)-6-chloro-7′-hydroxy-3,4-dihydro-2H,15′H-spiro[naphthalene-1,22′-[20]oxa[13]thia[1,14]diazatetracyclo[14.7.2.0^3,6.0^19,24]pentacosa[8,16,18,24]tetraen]-15′-one 13′,13′-dioxide”, for which the ring closure, isolated yield (rcm bond, 16-membered ring, Hoveyda-Grubbs II, DCM, 1.5 mM, 45.0 °C) is 20%.
As to `COc1ccc(CN2CC=CCS(=O)(=O)NC(=O)c3ccc4c(c3)N(C[C@@H]3CC[C@H]3C2=O)C[C@@]2(CCCc3cc(Cl)ccc32)CO4)cc1` (single isomer, unassigned), the ring closure, isolated yield (from C=CCN(Cc1ccc(OC)cc1)C(=O)[C@@H]1CC[C@H]1CN1C[C@@]2(CCCc3cc(Cl)ccc32)COc2ccc(C(=O)NS(=O)(=O)CC=C)cc21, rcm bond, 16-membered ring, Hoveyda-Grubbs II, toluene, 1.0 mM, 110.0 °C, 1.5 h) is 51%.
As to `O=C1NS(=O)(=O)[C@H]2CCC[C@H](C=C[C@H](O)[C@@H]3CC[C@H]3CN3C[C@@]4(CCCc5cc(Cl)ccc54)COc4ccc1cc43)C2` (single isomer, unassigned), the ring closure, isolated yield (from NS(=O)(=O)[C@H]1CCC[C@H](/C=C/[C@H](O)[C@@H]2CC[C@H]2CN2C[C@@]3(CCCc4cc(Cl)ccc43)COc3ccc(C(=O)O)cc32)C1, amide bond, 16-membered ring, EDC/DMAP, DCM, 2.0 mM, 64.0 h) worked out at 20%.
Take `C[C@@H]1[C@H]2/C=C/[C@H](O)[C@@H]3CC[C@H]3CN3C[C@@]4(CCCc5cc(Cl)ccc54)COc4ccc(cc43)C(=O)NS(=O)(=O)[C@H]1CCC2`: the ring closure, isolated yield (from C[C@H]1[C@H](/C=C/[C@H](O)[C@@H]2CC[C@H]2CN2C[C@@]3(CCCc4cc(Cl)ccc43)COc3ccc(C(=O)O)cc32)CCC[C@H]1S(N)(=O)=O, amide bond, 16-membered ring, EDC/DMAP, DCM, 2.0 mM) turned out to be 11.6%.
Where the note is “from C=CCC1C[C@H]1S(=O)(=O)NC(=O)c1ccc2c(c1)N(C[C@@H]1CC[C@H]1[C@@H](O)C=C)C[C@@]1(CCCc3cc(Cl)ccc31)CO2, rcm bond, 16-membered ring, Hoveyda-Grubbs II, AcOH, 0.915 mM, 36.0 h”, `O=C1NS(=O)(=O)[C@@H]2C[C@H]2C/C=C/[C@H](O)[C@@H]2CC[C@H]2CN2C[C@@]3(CCCc4cc(Cl)ccc43)COc3ccc1cc32` yielded a ring closure, isolated yield of 55%.
`C[C@H]1CS(=O)(=O)NC(=O)c2ccc3c(c2)N(C[C@@H]2CC[C@H]2[C@@H](O)C=C[C@H]1CO[Si](c1ccccc1)(c1ccccc1)C(C)(C)C)C[C@@]1(CCCc2cc(Cl)ccc21)CO3` (single isomer, unassigned) yielded a ring closure, isolated yield (from C[C@@H](CS(N)(=O)=O)[C@@H](/C=C/[C@H](O)[C@@H]1CC[C@H]1CN1C[C@@]2(CCCc3cc(Cl)ccc32)COc2ccc(C(=O)O)cc21)CO[Si](c1ccccc1)(c1ccccc1)C(C)(C)C, amide bond, 16-membered ring, EDC/DMAP, DCM, 2.0 mM, 16.0 h, 3 steps) of 10.8%.
For `COC[C@@]1(C)CC=C[C@H](O)[C@@H]2CC[C@H]2CN2C[C@@]3(CCCc4cc(Cl)ccc43)COc3ccc(cc32)C(=O)NS1(=O)=O` (single isomer, unassigned), the ring closure, isolated yield (from COC[C@@](C)(C/C=C/[C@H](O)[C@@H]1CC[C@H]1CN1C[C@@]2(CCCc3cc(Cl)ccc32)COc2ccc(C(=O)O)cc21)S(N)(=O)=O, amide bond, 15-membered ring) was 8.8% and 7.5%.
Turning to `O=C1NS(=O)(=O)NCCC=C[C@H](O)[C@@H]2CC[C@H]2CN2C[C@@]3(CCCc4cc(Cl)ccc43)COc3ccc1cc32`, the ring closure, isolated yield (from C=CCCNS(=O)(=O)NC(=O)c1ccc2c(c1)N(C[C@@H]1CC[C@H]1[C@@H](O)C=C)C[C@@]1(CCCc3cc(Cl)ccc31)CO2, rcm bond, 16-membered ring, Hoveyda-Grubbs II, 1,1-dichloroethane, 1.5 mM, 50.0 °C, 24.0 h) worked out at 61%.
With `C[C@@H]1[C@@H](C)C/C=C/[C@@H](O)[C@@H]2CC[C@H]2CN2C[C@@]3(CCCc4cc(Cl)ccc43)COc3ccc(cc32)C(=O)NS1(=O)=O`, under “from C=CC[C@H](C)[C@@H](C)S(=O)(=O)NC(=O)c1ccc2c(c1)N(C[C@@H]1CC[C@H]1[C@H](O)/C=C/CCC)C[C@@]1(CCCc3cc(Cl)ccc31)CO2, rcm bond, 16-membered ring, Hoveyda-Grubbs II (10 mol%), DCE, 1.87 mM, 80.0 °C”, the ring closure, isolated yield is 12.9%.
